In the NIST ThermoML archive (doi:10.1016/j.jct.2013.08.021):
Numbers after ± are expanded uncertainties.

Experiment: molar heat capacity at constant pressure
Details: 101 kPa, Liquid, Small sample (50 mg) DSC

CCC[N+]1(C)CCCC1.O=S(=O)([N-]S(=O)(=O)C(F)(F)F)C(F)(F)F
Details | molar heat capacity at constant pressure [J/K/mol]
313.15 K | 541 ± 24
314.15 K | 544 ± 24
315.15 K | 548 ± 24
316.15 K | 551 ± 24
317.15 K | 554 ± 24
318.15 K | 556 ± 24
319.15 K | 559 ± 24
320.15 K | 561 ± 24
321.15 K | 563 ± 24
322.15 K | 565 ± 24
323.15 K | 567 ± 24
324.15 K | 569 ± 24
325.15 K | 571 ± 25
326.15 K | 573 ± 25
327.15 K | 575 ± 25
328.15 K | 576 ± 25
329.15 K | 578 ± 25
330.15 K | 579 ± 25
331.15 K | 581 ± 25
332.15 K | 582 ± 25
333.15 K | 584 ± 25
334.15 K | 585 ± 25
335.15 K | 586 ± 25
336.15 K | 588 ± 25
337.15 K | 589 ± 25
338.15 K | 590 ± 25
339.15 K | 591 ± 25
340.15 K | 593 ± 25
341.15 K | 594 ± 25
342.15 K | 595 ± 25
343.15 K | 597 ± 25
344.15 K | 598 ± 25
345.15 K | 599 ± 25
346.15 K | 600 ± 26
347.15 K | 601 ± 26
348.15 K | 601 ± 26
349.15 K | 602 ± 26
350.15 K | 604 ± 26
351.15 K | 604 ± 26
352.15 K | 605 ± 26
353.15 K | 606 ± 26
